The target in one assay is T1, BRD4 (BD1) (Homo sapiens, UniProt O60885).
T1 construct: with relatively long constructs also being possible, preferably amino acids 44-168; made in house; host or cells: E. coli
Kind of assay: Binding assay BRD4/acetylated peptide H4 (TR-FRET protein-protein interaction assay). A digest of the protocol: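 Displacement of biotin-Ac-H4 peptide from His6-tagged BRD4(BD1), final usually 10 nM, read as Eu-streptavidin to anti-His-XL665 TR-FRET (665/620 nm). Compounds tested at 11 doses up to 20 μM in duplicate, pH 7.5 HEPES, 22 °C then 4 °C incubation; IC50 by 4-parameter regression.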
For orientation: In TR-FRET formats the signal depends on donor and acceptor labels being close together.

Another assay concerns MOLM-13 cells. Kind of assay: Cell proliferation assay (alamarBlue), MOLM-13. The class given is cell-based. Conditions: Homo sapiens, 96 hours incubation, inhibition of cell proliferation. A digest of the protocol:
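IC50 = concentration giving 50% growth inhibition relative to buffer-treated cells, after subtracting baseline fluorescence taken before dosing. Compound applied at 1E-5 to 1E-8 M for 96 h at 37 °C in RPMI1640 with 10% FCS; alamarBlue signal at 530/590 nm.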

pIC50: −log10 of the molar value.

With `CNC(=O)N1N=C(c2cccc(N3CCC3)c2)c2cc(OC)c(OC)cc2CC1C` (racemic) [Example 142, (±)-1-[3-(azetidin-1-yl)phenyl]-7,8-dimethoxy-N,4-dimethyl-4,5-dihydro-3H-2,3-benzodiazepine-3-carboxamide], the pIC50 (commonly the IC50 on a negative log10 scale, so that one unit is a factor of ten) at BRD4 (BD1) was 7.00; in the assay on MOLM-13 cells, 6.17.

As to `CNC(=O)N1N=C(c2cccc(N3CCN(C)CC3)c2)c2cc(OC)c(OC)cc2CC1C` (racemic) [Example 143, (±)-7,8-dimethoxy-N,4-dimethyl-1-[3-(4-methylpiperazin-1-yl)phenyl]-4,5-dihydro 3H-2,3-benzodiazepine-3-carboxamide], the negative logarithm of the IC50 (pIC50) at BRD4 (BD1) is 6.77; with MOLM-13 cells, 6.08.

Turning to `CNC(=O)N1N=C(c2ccc(F)c(N3CCOCC3)c2)c2cc(OC)c(OC)cc2CC1C` (racemic) [Example 144, (±)-1-[4-fluoro-3-(morpholin-4-yl)phenyl]-7,8-dimethoxy-N,4-dimethyl-4,5-dihydro-3H-2,3-benzodiazepine-3-carboxamide], the pIC50 was 6.72 at BRD4 (BD1) and 6.02 in the assay on MOLM-13 cells.

As for `CNC(=O)N1N=C(c2ccc(F)c(N3CC(F)(F)C3)c2)c2cc(OC)c(OC)cc2CC1C` (racemic) [Example 145, (±)-1-[3-(3,3-difluoroazetidin-1-yl)-4-fluorophenyl]-7,8-dimethoxy-N,4-dimethyl-4,5-dihydro-3H-2,3-benzodiazepine-3-carboxamide], the pIC50 at BRD4 (BD1) is 6.96; with MOLM-13 cells, 6.08.

For `CNC(=O)N1N=C(c2ccc(F)c(N3CCC(O)CC3)c2)c2cc(OC)c(OC)cc2CC1C` (racemic) [Example 146, (±)-1-[4-fluoro-3-(4-hydroxypiperidin-1-yl)phenyl]-7,8-dimethoxy-N,4-dimethyl-4,5-dihydro-3H-2,3-benzodiazepine-3-carboxamide], the pIC50 is 6.33 on BRD4 (BD1) and 5.94 in the assay on MOLM-13 cells.

With `CNC(=O)N1N=C(c2ccc(-n3nc(-c4ccccc4)cc3C(F)(F)F)cc2)c2cc(OC)c(OC)cc2CC1C` (racemic) [Example 149, (±)-7,8-dimethoxy-N,4-dimethyl-1-{4-[3-phenyl-5-(trifluoromethyl)-1H-pyrazol-1-yl]phenyl}-4,5-dihydro-3H-2,3-benzodiazepine-3-carboxamide], the pIC50 at BRD4 (BD1) was 5.79; with MOLM-13 cells it was 5.52.

For the compound `CNC(=O)N1N=C(c2ccc(-n3ccc(-c4ccc(F)cc4)n3)cc2)c2cc(OC)c(OC)cc2CC1C` (racemic) [Example 150, (±)-1-{4-[3-(4-fluorophenyl)-1H-pyrazol-1-yl]phenyl}-7,8-dimethoxy-N,4-dimethyl-4,5-dihydro-3H-2,3-benzodiazepine-3-carboxamide], the pIC50 at BRD4 (BD1) was 7.10; with MOLM-13 cells it was 6.32.

Take `CNC(=O)N1N=C(c2ccc(-n3nc(C(F)(F)F)cc3C)cc2)c2cc(OC)c(OC)cc2CC1C` (racemic) [Example 151, (±)-7,8-dimethoxy-N,4-dimethyl-1-{4-[5-methyl-3-(trifluoromethyl)-1H-pyrazol-1-yl]phenyl}-4,5-dihydro-3H-2,3-benzodiazepine-3-carboxamide]: the values for the pIC50 on BRD4 (BD1) and with MOLM-13 cells were 7.70 and 5.88, respectively.

For `CNC(=O)N1N=C(c2ccc(-n3cncn3)cc2)c2cc(OC)c(OC)cc2CC1C` (racemic) [Example 152, (±)-7,8-Dimethoxy-N,4-dimethyl-1-[4-(1H-1,2,4-triazol-1-yl)phenyl]-4,5-dihydro-3H-2,3-benzodiazepine-3-carboxamide], the pIC50 is 7.15 at BRD4 (BD1) and 6.37 in the assay on MOLM-13 cells.

Take `CNC(=O)N1N=C(c2ccc(-n3ncnc3C)cc2)c2cc(OC)c(OC)cc2CC1C` (racemic) [Example 153, (±)-7,8-dimethoxy-N,4-dimethyl-1-[4-(5-methyl-1H-1,2,4-triazol-1-yl)phenyl]-4,5-dihydro-3H-2,3-benzodiazepine-3-carboxamide]: the pIC50 on BRD4 (BD1) is 6.96; with MOLM-13 cells it was 6.32.

Consider `CNC(=O)N1N=C(c2ccc(-n3nc(C)nc3C)cc2)c2cc(OC)c(OC)cc2CC1C` (racemic) [Example 154, (±)-1-[4-(3,5-dimethyl-1H-1,2,4-triazol-1-yl)phenyl]-7,8-dimethoxy-N,4-dimethyl-4,5-dihydro-3H-2,3-benzodiazepine-3-carboxamide], for which the pIC50 was 6.77 at BRD4 (BD1) and 5.68 in the assay with MOLM-13 cells.

As for `CNC(=O)N1N=C(c2ccc(-c3c(C)noc3C)cc2)c2cc(C(C)(C)C)ccc2CC1C` (racemic) [Example 155, (±)-8-tert-Butyl-1-[4-(3,5-dimethylisoxazol-4-yl)phenyl]-N,4-dimethyl-4,5-dihydro-3H-2,3-benzodiazepine-3-carboxamide], the pIC50 on BRD4 (BD1) was 7.40; with MOLM-13 cells it was 6.42.

Regarding `CNC(=O)N1N=C(c2ccc(-c3c(C)noc3C)cc2)c2cc(OC(F)(F)F)c(Cl)cc2CC1C` (racemic) [Example 156, (±)-7-Chloro-1-[4-(3,5-dimethylisoxazol-4-yl)phenyl]-N,4-dimethyl-8-(trifluoromethoxy)-4,5-dihydro-3H-2,3-benzodiazepine-3-carboxamide], the pIC50 at BRD4 (BD1) is 6.64; with MOLM-13 cells it was 6.10.

For the compound `CNC(=O)N1N=C(c2ccc(-c3c(C)noc3C)cc2)c2cc(C)ccc2CC1C` (racemic) [Example 158, (±)-1-[4-(3,5-dimethylisoxazol-4-yl)phenyl]-N,4,8-trimethyl-4,5-dihydro-3H-2,3-benzodiazepine-3-carboxamide], the pIC50 is 7.22 at BRD4 (BD1) and 6.37 in the assay on MOLM-13 cells.

Turning to `CNC(=O)N1N=C(c2ccc(-c3c(C)noc3C)cc2)c2cc(OC(F)F)c(OC(F)F)cc2CC1C` (racemic) [Example 160, (±)-7,8-Bis(difluoromethoxy)-1-[4-(3,5-dimethylisoxazol-4-yl)phenyl]-N,4-dimethyl-4,5-dihydro-3H-2,3-benzodiazepine-3-carboxamide], the results for the pIC50 on BRD4 (BD1) and in the assay on MOLM-13 cells were 6.59 and 6.40, respectively.

Consider `CCOc1cc2c(cc1OCC)C(c1ccc(-c3c(C)noc3C)cc1)=NN(C(=O)NC)C(C)C2` (racemic) [Example 161, (±)-1-[4-(3,5-Dimethylisoxazol-4-yl)phenyl]-7,8-diethoxy-N,4-dimethyl-4,5-dihydro-3H-2,3-benzodiazepine-3-carboxamide], for which the values for the pIC50 on BRD4 (BD1) and in the assay with MOLM-13 cells were 6.96 and 6.55, respectively.

Consider `CNC(=O)N1N=C(c2ccc(-c3c(C)noc3C)cc2)c2cc(OC)c(OC(F)F)cc2CC1C` (racemic) [Example 162, (±)-7-(difluoromethoxy)-1-[4-(3,5-dimethylisoxazol-4-yl)phenyl]-8-methoxy-N,4-dimethyl-4,5-dihydro-3H-2,3-benzodiazepine-3-carboxamide], for which the pIC50 on BRD4 (BD1) is 6.89; in the assay on MOLM-13 cells it was 6.42.

Take `CNC(=O)N1N=C(c2ccc(N3CCN(C)CC3)cc2)c2cc(OC)c(OC(F)F)cc2CC1C` (racemic) [Example 163, (±)-7-(difluoromethoxy)-8-methoxy-N,4-dimethyl-1-[4-(4-methylpiperazin-1-yl)phenyl]-4,5-dihydro-3H-2,3-benzodiazepine-3-carboxamide]: the pIC50 at BRD4 (BD1) is 7.22; with MOLM-13 cells, 6.68.

As for `CNC(=O)N1N=C(c2ccc(Cl)cc2)c2cc(OCCCN3CCN(C)CC3)ccc2CC1C` (racemic) [Example 164, (±)-1-(4-chlorophenyl)-N,4-dimethyl-8-[3-(4-methylpiperazin-1-yl)propoxy]-4,5-dihydro-3H-2,3-benzodiazepine-3-carboxamide], the values for the pIC50 at BRD4 (BD1) and in the assay on MOLM-13 cells were 7.22 and 6.24, respectively.

Turning to `CNC(=O)N1N=C(c2ccc(Cl)cc2)c2cc(OCCCN3CCOCC3)ccc2CC1C` (racemic) [Example 165, (±)-1-(4-chlorophenyl)-N,4-dimethyl-8-[3-(morpholin-4-yl)propoxy]-4,5-dihydro-3H-2,3-benzodiazepine-3-carboxamide], the pIC50 at BRD4 (BD1) is 6.89; in the assay with MOLM-13 cells, 6.06.

Take `CNC(=O)N1N=C(c2ccc(Cl)cc2)c2cc(OCCN3CCN(C)CC3)ccc2CC1C` (racemic) [Example 166, (±)-1-(4-chlorophenyl)-N,4-dimethyl-8-[2-(4-methylpiperazin-1-yl)ethoxy]-4,5-dihydro-3H-2,3-benzodiazepine-3-carboxamide]: the pIC50 on BRD4 (BD1) was 6.57; in the assay with MOLM-13 cells it was 6.17.

As for `CNC(=O)N1N=C(c2ccc(-c3c(C)noc3C)cc2)c2cc(OC)c(C#N)cc2CC1C` (racemic) [Example 170, (±)-7-Cyano-1-[4-(3,5-dimethylisoxazol-4-yl)phenyl]-8-methoxy-N,4-dimethyl-4,5-dihydro-3H-2,3-benzodiazepine-3-carboxamide], the pIC50 was 7.15 on BRD4 (BD1) and 6.28 in the assay on MOLM-13 cells.

With `CNC(=O)N1N=C(c2ccc(N3CCOCC3)cc2)c2cc(NC(C)=O)ccc2CC1C` (racemic) [Example 171, (±)-8-Acetamido-N,4-dimethyl-1-[4-(morpholin-4-yl)phenyl]-4,5-dihydro-3H-2,3-benzodiazepine-3-carboxamide], the pIC50 at BRD4 (BD1) was 6.92; in the assay with MOLM-13 cells, 5.72.

`CNC(=O)N1N=C(c2ccc(N3CCN(C)CC3)cc2)c2cc(NC(C)=O)ccc2CC1C` (racemic) [Example 172, (±)-8-Acetamido-N,4-dimethyl-1-[4-(4-methylpiperazin-1-yl)phenyl]-4,5-dihydro-3H-2,3-benzodiazepine-3-carboxamide]: the pIC50 on BRD4 (BD1) is 6.89; in the assay with MOLM-13 cells it was 5.72.

Turning to `CNC(=O)N1N=C(c2ccc(-c3c(C)noc3C)cc2)c2cc(NC(C)=O)ccc2CC1C` (racemic) [Example 173, (±)-8-Acetamido-1-[4-(3,5-dimethylisoxazol-4-yl)phenyl]-N,4-dimethyl-4,5-dihydro-3H-2,3-benzodiazepine-3-carboxamide], the pIC50 is 6.74 on BRD4 (BD1) and 5.92 with MOLM-13 cells.
